Experiments:
Jurkat = test: Growth inhibition of human Jurkat cells after 96 hrs; assay type: functional, cell-based
[1] = Chemical stability in phosphate buffer saline at pH 7.4; assay type: physicochemical

| half-life [1] | Structure (SMILES) | IC50 (Jurkat) |
| --- | --- | --- |
|  | CC[C@@]1(OC(=O)CCC(P(=O)(O)O)P(=O)(O)O)C(=O)OCc2c1cc1n(c2=O)Cc2cc3ccccc3nc2-1 [CAMDRONATE] | 21 nM |
|  | CC[C@@]1(O)C(=O)OCc2c1cc1n(c2=O)Cc2cc3ccccc3nc2-1 [CAMPTOTHECIN] | 1.4 nM |
| 3.75 days | COc1cc(COC(=O)NC(Cc2c[nH]c3ccccc23)C(=O)O)cc(OC)c1OC(=O)OCCCCCCC(P(=O)(O)O)P(=O)(O)O (stereo not drawn) [TRYPDRONATE] |  |
